Here are results for eight molecules from publication PMC12566723, “Boronic Derivatives of Thiosemicarbazones as Tyrosinase Inhibitors” (Pharmaceutics, 2025).

For one assay, the system named is SK-MEL-3. The assay is described as follows: Antiproliferative activity by sulforhodamine B assay, SK-MEL-3. Format: cell-based. The settings on record: SRB; for IC50: SK-MEL-3, 72 h; for inhibition at 100 µM: SK-MEL3, read-out: proliferation inhibition at 100µM (reported if IC50 > 100 µM), SK-MEL-3, 100 µM, 72 h. The method, then:
(§1) Cell lines. The Hs-294T (HTB-140), MCF-10A, and SK-MEL-3 (HTB-69) cell lines were purchased from the American Type Culture Collection (ATCC; Rockville, MD, USA). The KU-19-19 was purchased from Leibniz Institute DSMZ-German Collection of Microorganisms and Cell Cultures GmbH (Braunschweig, Germany). Hs-294T, SK-MEL-3, and KU-19-19 (ACC 395) cell lines were cultured in Dulbecco’s Modified Eagle Medium (DMEM; Biowest, Nuaille, France) supplemented with 10% (v/v) fetal bovine serum (FBS; GE Healthcare HyClone, Logan, UT, USA), 2 mM L-glutamine (Sigma-Aldrich, Poznań, Poland). The MCF-10A cell line was cultured in Ham’s F12 medium with glutamine (Corning Costar, Warsaw, Poland) supplemented with 5% (v/v) FBS, 5% (v/v) horse serum, 10 µg/mL insulin, 0.05 µg/mL cholera toxin, 0.5 µg/mL hydrocortisone, and 20 ng/mL hEGF (all from Sigma-Aldrich). All culture media contained 100 µg/mL streptomycin (Sigma-Aldrich) and 100 U/mL penicillin (PolfaTarchomin SA, Warsaw, Poland). The cell lines were tested for mycoplasma contamination using Venor GeM Classic (Minerva Biolabs, Berlin, Germany) with negative results in all cases. Cell lines were cultured in a humidified atmosphere at 37 °C with 5% (v/v) CO2 and passaged twice a week using ethylenediaminetetraacetic acid (EDTA)-Trypsin solution (pH 8; HIIET, Wroclaw, Poland) as a detachment agent.
(§2) Antiproliferative activity assessment by sulforhodamine B assay. The cells were seeded on 384-well plates (Greiner Bio One, Kremsmünster, Austria) at a density of 1 × 10^3 cells/well and, after overnight attachment, were exposed to compounds at various concentrations (at least eight concentrations). After 72 h, the sulforhodamine B (SRB) assay based on Skehan et al. was performed with minor modifications. Briefly, cell were fixed with 20% (w/v) trichloroacetic acid (Avantor Performance Materials, Gliwice, Poland) for 1 h, washed several times with tap water, and stained with 20 µL of 0.1% (w/v) solution of sulforhodamine B (Sigma-Aldrich, Poznan, Poland) in 1% (v/v) acetic acid (Avantor Performance Materials, Gliwice, Poland). After 30 min of incubation at room temperature, the unbound dye was washed out with 1% (v/v) acetic acid, whereas the bound dye was solubilized with 70 µL of a 10 mM unbuffered tris(hydroxymethyl)aminomethane (TRIS; Avantor Performance Materials, Gliwice, Poland) solution. The entire procedure was performed using Biotek EL-406 washing station (BioTek Instruments, Winooski, VT, USA). Absorbance was read using a Biotek Hybrid H4 reader (BioTek Instruments, Winooski, VT, USA) at 540 nm wavelength. Proliferation inhibition (%Inh) was calculated using the following formula: %Inh = [((A_p − A_m)/(A_k − A_m)) × 100] − 100, where Am—absorbance of cell-free medium (blank), Ak—absorbance for vehicle-treated cells (control), Ap—absorbance for compound-treated cells. […] 10.5.0 (GraphPad Software Inc., San Diego, CA, USA) using the [inhibitor] vs. response—variable slope (four parameters) Hill’s equation, based on at least three biological, independent repeats.
On the technique in general: The SRB assay estimates cell density from bound dye.

The next assay concerns Hs-294T. The assay is described as follows: Antiproliferative activity by sulforhodamine B assay, Hs-294T. Type of assay: cell-based. The following applies: for IC50: 72 h, SRB; for inhibition at 100 µM: read-out: proliferation inhibition at 100µM (reported if IC50 > 100 µM), 100 µM, 72 h, SRB. The protocol:
as §1, §2

For the next assay, the system named is KU-19-19. Briefly: Antiproliferative activity by sulforhodamine B assay, KU-19-19. Format: cell-based. The settings on record: SRB; for IC50: KU-19-19, 72 h; for inhibition at 100 µM: read-out: proliferation inhibition at 100µM (reported if IC50 > 100 µM), KU-19-19, 100 µM, 72 h. The protocol: as §1, §2
A further assay deals with MCF-10A. Briefly: Antiproliferative activity by sulforhodamine B assay, MCF-10A. The following applies: for IC50: 72 h, SRB; for inhibition at 100 µM: read-out: proliferation inhibition at 100µM (reported if IC50 > 100 µM), 100 µM, 72 h, SRB. Format: cell-based. The protocol: as §1, §2
The test system of assay [1] is SK-MEL-3, Hs294T, KU-19-19, MCF-10A cell lines. Briefly: Antiproliferative activity by sulforhodamine B assay, statements across the cell line panel. Type of assay: cell-based. The following applies: for IC50 in SK-MEL-3 relative to the Hs294T cell line: SK-MEL-3 vs Hs294T, fold higher; for antiproliferative effects in words: up to a concentration of 100 µM. The method, then:
as §1, §2
In view of the results obtained from studies on the inhibitory activity of boronate derivatives of thiosemicarbazones against tyrosinase, we decided to test their ability to inhibit the growth and proliferation of tumor lines that overexpress tyrosinase. For this purpose, we tested antiproliferative activity on selected cell lines. Initial antiproliferative screening was conducted using a tissue-agnostic approach on a select panel of cell lines. […]

For another assay, the target named is mushroom tyrosinase (Agaricus bisporus, UniProt C7FF04). The assay is described as follows: Tyrosinase enzymatic assay (diphenolase activity, L-DOPA substrate, dopachrome at 475 nm). Format: biochemical. The following applies: para-substituted analogue vs carboxylic acid of ref 30.
Sequence of mushroom tyrosinase (C7FF04 2-392): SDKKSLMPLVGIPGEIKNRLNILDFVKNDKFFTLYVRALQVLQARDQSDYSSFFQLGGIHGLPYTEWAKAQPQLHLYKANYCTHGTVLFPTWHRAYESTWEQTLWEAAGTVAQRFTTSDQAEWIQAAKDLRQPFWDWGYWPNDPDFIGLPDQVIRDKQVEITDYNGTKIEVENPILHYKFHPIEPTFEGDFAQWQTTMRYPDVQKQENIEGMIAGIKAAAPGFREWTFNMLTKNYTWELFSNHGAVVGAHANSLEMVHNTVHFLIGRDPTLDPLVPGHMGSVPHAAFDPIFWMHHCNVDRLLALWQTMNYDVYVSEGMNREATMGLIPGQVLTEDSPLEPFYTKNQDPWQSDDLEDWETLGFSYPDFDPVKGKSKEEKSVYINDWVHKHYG
Sequence of mushroom tyrosinase (G1K3P4 1-150 partner): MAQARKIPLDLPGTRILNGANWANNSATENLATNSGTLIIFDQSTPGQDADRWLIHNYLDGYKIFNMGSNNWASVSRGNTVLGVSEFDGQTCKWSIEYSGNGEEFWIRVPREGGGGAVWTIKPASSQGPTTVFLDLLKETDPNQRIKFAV

Structures can show the parent of a compound that is named as a salt.

In the case of `[NH2][Pt]([NH2])([Cl])[Cl]` [CDDP, Cisplatin, reference compound], the IC50 (as a rule, the concentration that gives 50% inhibition) with SK-MEL-3 amounted to 15 µM; with Hs-294T, 2170 nM; with KU-19-19 it was 4.46 µM; with MCF-10A it was 3.03 µM. Also, the “IC50 in SK-MEL-3 relative to the Hs294T cell line” value in assay [1] amounted to 6.9 fold.
On to `NC(=S)N1N=Cc2ccccc2B1O` [Compound 1], for which the inhibition at 100 µM with SK-MEL-3 (Homo sapiens) was 43.4%; in the assay with Hs-294T (Homo sapiens), 55.4%; in the assay on KU-19-19 (Homo sapiens), 21.4%; in the assay with MCF-10A (Homo sapiens), 42.7%.
Take `NC(=S)NN=Cc1cccc(B(O)O)c1` [Compound 2]: the inhibition at 100 µM came out at 50.7% in the assay on SK-MEL-3 (Homo sapiens), 37.6% with Hs-294T (Homo sapiens), 11.3% in the assay on KU-19-19 (Homo sapiens) and 30.7% in the assay on MCF-10A (Homo sapiens).
Turning to `NC(=S)N/N=C/c1ccc(B(O)O)cc1` [Compound 3], the inhibition at 100 µM with SK-MEL-3 (Homo sapiens) stood at 31.8%; in the assay with Hs-294T (Homo sapiens) it was 13.9%; in the assay on KU-19-19 (Homo sapiens), 5.4%; in the assay with MCF-10A (Homo sapiens), 31.7%. Further, the “antiproliferative effects in words” value in assay [1] is “minimal antiproliferative effects”.
On to `CC1=NN(C(N)=S)B(O)c2ccccc21` [Compound 4], for which the IC50 with SK-MEL-3 (Homo sapiens, SK-MEL3) is 68.5 µM; with Hs-294T (Homo sapiens), 79400 nM; in the assay with KU-19-19 (Homo sapiens), 69 µM; with MCF-10A (Homo sapiens) it was 55 µM; in assay [1] (all four cell lines, 72 h, SRB, read-out: IC50 values, range over the tested cell lines), 55 to 79.4 µM.
`C/C(=N\NC(N)=S)c1cccc(B(O)O)c1` [Compound 5] had an IC50 with SK-MEL-3 (Homo sapiens, SK-MEL3) of 56.1 µM. Further, the inhibition at 100 µM in the assay with Hs-294T (Homo sapiens) was found to be 35.9%; in the assay on KU-19-19 (Homo sapiens) it was 26.8%; in the assay with MCF-10A (Homo sapiens), 37.1%.
For `C/C(=N\NC(N)=S)c1ccc(B(O)O)cc1` [Compound 6], the “IC50 against tyrosinase compared with the corresponding carboxylic acid” value against mushroom tyrosinase is reported as “four times lower”. The inhibition at 100 µM was determined as 37.3% in the assay with SK-MEL-3 (Homo sapiens), 13.9% with Hs-294T (Homo sapiens), 9.5% with KU-19-19 (Homo sapiens) and 32.8% in the assay with MCF-10A (Homo sapiens). Further, the “antiproliferative effects in words” value in assay [1] is listed as “minimal antiproliferative effects”.
With `COc1cccc2c1C(=O)c1c(O)c3c(c(O)c1C2=O)C[C@@](O)(C(=O)CO)C[C@@H]3O[C@H]1C[C@H](N)[C@H](O)[C@H](C)O1` [Doxo, Doxorubicin hydrochloride, reference compound], the IC50 turned out to be 0.016 µM in the assay on SK-MEL-3 (Homo sapiens, SK-MEL3); 1.1 nM in the assay with Hs-294T (Homo sapiens); 0.0016 µM in the assay on KU-19-19 (Homo sapiens); 0.00051 µM in the assay with MCF-10A (Homo sapiens). Besides, the “IC50 in SK-MEL-3 relative to the Hs294T cell line” value in assay [1] is 14.5 fold.
